In patent US20260199482A1, “BILE ACID-METRONIDAZOLE CONJUGATE AND USE THEREOF” (SOUTH CHINA UNIVERSITY OF TECHNOLOGY, priority 2022, published 2026):
≈ marks a conversion by molar mass, not a printed value.

Legend:
[1] = tested on: Clostridioides difficile ATCC 43255; assay: MIC determination using broth microdilution method, anaerobic bacteria; type: cell-based; conditions: for MIC: ATCC43255, Clostridioides difficile ATCC 43255, broth microdilution, anaerobic, 37° C., 48 h; for inhibitory effect on Clostridioides difficile (ATCC 43255), in words: comment on Table 1
Experimental: 0.10 g of sterile cycloserine and 3.20 mg of sterile cefoxitin (filtered by a filter membrane and sterilized) were added to every 200 mL, mixed well, and poured into a sterile petri dish for later use.
S3, culture of Clostridioides difficile strain: 1) the strain stored at −80° C. was resuscitated in an anaerobic glove box with a cycloserine-cefoxitin-fructose agar medium plate, and statically cultured at 37° C. in a constant-temperature incubator for 48 h; • 2) single colonies were picked, and statically cultured in the brain heart infusion broth medium overnight at 37° C. in the constant-temperature incubator; and • 3) the bacterial solution that was statically cultured overnight was transferred into the anaerobic glove box with the brain heart infusion broth medium at a ratio of 1:100, and cultured for 3-4 h until the OD600 was between 0.6 and 0.8; and during this process, 5 g/L of yeast extract solution was added to increase a strain concentration.
(§1) The culture process of the strain was operated in the anaerobic glove box. After the operation was completed, the strain was well sealed with an anaerobic bag or an anaerobic box, taken out and then cultured in the constant-temperature incubator.

[2] = tested on: Bacteroides fragilis ATCC 25285; assay: as above; type: cell-based; conditions: ATCC25285; Bacteroides fragilis ATCC 25285; broth microdilution, anaerobic, 37° C., 48 h; read-out: MIC
Experimental: as §1

[3] = tested on: Porphyromonas gingivalis ATCC 33277; assay: as above; type: cell-based; conditions: ATCC33277; Porphyromonas gingivalis ATCC 33277; broth microdilution, anaerobic, 37° C., 48 h; read-out: MIC
Experimental: S5, Culture of Porphyromonas gingivalis strain: • the strain stored at −80° C. was resuscitated in the anaerobic glove box with a Colombian blood agar plate, and statically cultured at 37° C. in the constant-temperature incubator for 5-7 days.
as §1

H. pylori ATCC 26695 [4] = assay: MIC determination using broth microdilution method, Helicobacter pylori; type: cell-based; conditions: ATCC26695, H. pylori ATCC 26695(S), metronidazole-susceptible strain, read-out: MIC
Experimental: (§2) • 1) A frozen solution stored at −80° C. was taken out, and thawed at room temperature; 100 μL of bacterial solution was taken with a pipette, coated onto a Columbia blood agar plate (finished-product medium), put invertedly in a […] culture box, placed in a micro-aerobic gas production bag to achieve a micro-aerobic environment, and cultured at 37° C. for 2-3 days. • 2) A sterile inoculation ring was used to pick Helicobacter pylori single colonies (transparent water droplets) grown on the Colombian blood agar medium and inoculated in the above liquid medium; and cultured at 37° C. in a micro-aerobic environment for 3 days. • 3) A required concentration (absorbance) for the experiment was reached after culture, and the bacterial solution was taken for subsequent experiments.
(§3) The drug concentration at which bacteria ceased to grow or grew at the most significant reduction level was referred to as the MIC value.

H. pylori ATCC 43504 [5] = assay: as above; type: cell-based; conditions: Helicobacter pylori, ATCC43504; H. pylori ATCC 43504(R), metronidazole-resistant strain; read-out: MIC
Experimental: as §2, §3

H. pylori NCTC 11637 = assay: as above; type: cell-based; conditions: Helicobacter pylori, NCTC11637; H. pylori NCTC 11637(R), metronidazole-resistant strain; read-out: MIC
Experimental: as §2, §3

[6] = tested on: H. pylori Sydney strain SS1; assay: as above; type: cell-based; conditions: H. pylori Sydney strain SS1, read-out: MIC
Experimental: as §2, §3

[7] = tested on: Clostridioides difficile infection (spores, 027 Type); assay: Clostridioides difficile infection (CDI) mouse model; type: in vivo, C57BL/6 mice; conditions: for number of surviving mice: 10 animals per group
Excerpt: • 1) Experimental animals: C57BL/6, 4-6 weeks old, female.
In order to evaluate the efficacy of the compounds of the present application on Clostridioides difficile infection, an animal model of Clostridioides difficile infection was established, as shown in FIG. 1. […] On Day 0, the mice were administrated with 10^5 CFU/mL of spores by gavage; and on Days 1 and 2, the mice were administrated with 10^6 CFU/mL of spores by gavage. Starting from Day 3, the mice were given 7 days of drug treatment, and all mice were euthanized at the end of the experiment, except for the death of mice during the treatment.
Two of the conjugates, SCUT1-2 and SCUT1-6, with the optional in-vitro inhibitory activities were selected. […] The therapeutic effect of the conjugate of the present application in the treatment of Clostridioides difficile infection was evaluated.

H. pylori ATCC 43504 [8] = conditions: H. pylori ATCC 43504(R); footnote a; cited from earlier work
H. pylori ATCC 26695 [9] = conditions: H. pylori ATCC 26695(S); footnote b; cited from earlier work
[10] = Day 3 (before the administration), 50 mg/kg groups

Structure (SMILES) | MIC [1] [µg/mL] | MIC [2] [µg/mL] | MIC [3] [µg/mL] | MIC (H. pylori ATCC 26695 [4]) [µg/mL] | MIC (H. pylori ATCC 43504 [5]) [µg/mL] | MIC (H. pylori NCTC 11637) [µg/mL] | MIC [6] [µg/mL] | number of mice with diarrhea [7, 10] | number of surviving mice [7, 10] | number of mice with diarrhea ([7]; Day 4, 50 mg/kg) | number of surviving mice ([7]; Day 4, 50 mg/kg) | number of mice with diarrhea ([7]; Day 5, 50 mg/kg) | number of surviving mice ([7]; Day 5, 50 mg/kg) | number of mice with diarrhea ([7]; Day 6, 50 mg/kg) | number of surviving mice ([7]; Day 6, 50 mg/kg) | number of mice with diarrhea ([7]; Day 7, 50 mg/kg) | number of surviving mice ([7]; Day 7, 50 mg/kg) | number of mice with diarrhea ([7]; Day 8, 50 mg/kg) | number of surviving mice ([7]; Day 8, 50 mg/kg) | number of mice with diarrhea ([7]; Day 9, 50 mg/kg) | other results
Cc1ncc([N+](=O)[O-])n1CCOC(=O)CC[C@@H](C)[C@H]1CC[C@H]2[C@@H]3[C@H](O)[C@H](O)[C@@H]4C[C@H](O)CC[C@]4(C)[C@H]3CC[C@]12C [SCUT1-6] | 0.06 (≈ 0.107 µM) | 2 (≈ 3.56 µM) | 0.25 (≈ 0.445 µM) | 4 (≈ 7.12 µM) | 8 (≈ 14.2 µM) | 8 (≈ 14.2 µM) | 16 (≈ 28.5 µM) | 8 number of mice | 10 number of mice | 10 (10) number of mice | 10 (10) number of mice | 8 number of mice | 10 number of mice | 7 number of mice | 10 number of mice | 5 number of mice | 10 number of mice | 6 number of mice | 10 number of mice | 5 number of mice | promotion of inhibitory activity against Clostridioides difficile relative to metronidazole ([1]; at the same dosage, versus metronidazole): more than 50 times; inhibitory effect on Clostridioides difficile (ATCC 43255), in words [1]: particularly prominent; number of surviving mice ([7]; Day 9, 50 mg/kg): 10 number of mice; changes in mouse body weights ([7]; during drug treatment from Day 3, 50 mg/kg): continued to decrease until the third day of drug treatment (Day 5)
Cc1ncc([N+](=O)[O-])n1CCO [Metronidazole] | 1 to 2 (≈ 5.84 to 11.7 µM) | 0.25 to 2 (≈ 1.46 to 11.7 µM) | 2 (≈ 11.7 µM) | 4 (≈ 23.4 µM) | > 128 | > 128 | 8 (≈ 46.7 µM) | 9 number of mice | 10 number of mice | 8 number of mice | 9 number of mice | 5 number of mice | 8 number of mice | 3 number of mice | 8 number of mice | 3 number of mice | 8 number of mice | 3 number of mice | 8 number of mice | 3 number of mice | number of surviving mice ([7]; Day 9, 50 mg/kg): 8 number of mice; probability of survival ([7]; after 7 days of drug treatment, 50 mg/kg, Model group 44.44%): 80%; MIC reported in related literatures (H. pylori ATCC 43504 [8]): (64-256)^a μg/mL; MIC reported in related literatures (H. pylori ATCC 26695 [9]): (1-8)^b μg/mL
C[C@H](CCC(=O)O)[C@H]1CC[C@H]2[C@@H]3[C@@H](O)C[C@@H]4C[C@H](O)CC[C@]4(C)[C@H]3CC[C@]12C [UDCA, ursodeoxycholic acid, reference compound] | 16 (≈ 40.8 µM) | > 32 | > 32 | > 32 | > 128 | > 128 | > 32 | 9 number of mice | 10 number of mice | 9 number of mice | 10 number of mice | 7 number of mice | 10 number of mice | 6 number of mice | 10 number of mice | 4 number of mice | 10 number of mice | 5 number of mice | 10 number of mice | 5 number of mice | number of surviving mice ([7]; Day 9, 50 mg/kg): 10 number of mice
Cc1ncc([N+](=O)[O-])n1CCOC(=O)CC[C@@H](C)[C@H]1CC[C@H]2[C@@H]3[C@@H](O)C[C@@H]4C[C@H](O)CC[C@]4(C)[C@H]3CC[C@]12C [SCUT1-2] | 0.12 (≈ 0.22 µM) | 1 (≈ 1.83 µM) | 0.25 (≈ 0.458 µM) | 4 (≈ 7.33 µM) | 8 (≈ 14.7 µM) | 16 (≈ 29.3 µM) | 8 (≈ 14.7 µM) | 10 (10) number of mice | 10 (10) number of mice | 7 number of mice | 10 number of mice | 4 number of mice | 10 number of mice | 2 number of mice | 10 number of mice | 1 number of mice | 10 number of mice | 1 number of mice | 10 number of mice | 1 number of mice | inhibitory effect on Clostridioides difficile (ATCC 43255), in words [1]: particularly prominent; death of mice during the treatment ([7]; 50 mg/kg, 7 days of drug treatment): no mice died; therapeutic effect, in words ([7]; 50 mg/kg, compared with Metronidazole, UDCA and MIX groups): a good therapeutic effect; number of surviving mice ([7]; Day 9, 50 mg/kg): 10 number of mice; diarrhea rate ([7]; at the endpoint of treatment, 50 mg/kg, Model group 100%): 10%
